Measured values taken from US8431593B2, “Heteroaryl amide derivatives” (H. Lundbeck A/S, priority 2006, dated 2013).

molecular target: T1, P2X7 receptor (Homo sapiens, UniProt Q99572); assay: P2X7 calcium mobilization assay, high throughput, antagonist activity (Example 4A); type: cell-based; details: 50% decrease in the fluorescence response of cells exposed to 80 μM of 2′(3′)-O-(4-benzoyl-benzoyl)adenosine 5′-triphosphate; determined as in Example 4A; read-out: IC50
T1 construct: host or cells: SH-SY5Y
T1 sequence (Q99572 1-595): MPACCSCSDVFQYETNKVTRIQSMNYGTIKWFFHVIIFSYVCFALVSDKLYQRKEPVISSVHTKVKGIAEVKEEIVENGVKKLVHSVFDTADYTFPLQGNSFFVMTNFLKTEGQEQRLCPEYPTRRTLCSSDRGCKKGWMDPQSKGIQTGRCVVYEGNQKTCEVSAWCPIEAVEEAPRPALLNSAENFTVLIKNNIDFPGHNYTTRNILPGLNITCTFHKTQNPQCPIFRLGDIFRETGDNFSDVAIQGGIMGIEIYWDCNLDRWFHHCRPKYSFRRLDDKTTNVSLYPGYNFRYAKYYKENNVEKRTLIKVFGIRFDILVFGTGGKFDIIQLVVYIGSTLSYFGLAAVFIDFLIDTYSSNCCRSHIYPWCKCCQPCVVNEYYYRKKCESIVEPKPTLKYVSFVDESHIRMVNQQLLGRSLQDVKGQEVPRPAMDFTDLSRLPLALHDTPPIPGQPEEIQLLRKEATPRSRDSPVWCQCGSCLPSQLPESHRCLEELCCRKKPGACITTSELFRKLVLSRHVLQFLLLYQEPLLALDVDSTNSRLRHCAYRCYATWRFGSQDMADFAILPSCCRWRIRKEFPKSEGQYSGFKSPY
Summary of the method: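 Antagonism was measured as calcium mobilization on FLIPR^TETRA after a 1 h room-temperature compound preincubation of dye-loaded cells. Baseline from no-agonist wells was subtracted from each well's maximum RFU.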

IC50, < 2 µM:
O=C(NCC12CC3CC(CC(C3)C1)C2)c1cccc2nc(CNc3ccn(CCCO)n3)cn12 [Compound 1000, N-(adamantan-1-ylmethyl)-2-({[1-(3-hydroxypropyl)-1H-pyrazol-3-yl]amino}methyl) imidazo [1,2-a]pyridine-5-carboxamide]
CCOC(=O)C(CC1CC1)c1cn2c(C(=O)NCC34CC5CC(CC(C5)C3)C4)cccc2n1 (centres unmarked) [Compound 1001, ethyl 2-{5-[(adamantan-1-ylmethyl)carbamoyl]imidazo[1,2-a]pyridin-2-yl}-3-cyclopropylpropanoate]
O=C(NCC12CC3CC(CC(C3)C1)C2)c1cccc2nc(C(CC3CC3)C(=O)O)cn12 (centres unmarked) [Compound 1002, 2-{5-[(adamantan-1-ylmethyl)carbamoyl]imidazo[1,2-a]pyridin-2-yl}-3-cyclopropylpropanoic acid]
O=C(NCC12CC3CC(CC(C3)C1)C2)c1cccc2nc(CC(Cc3ccccc3)C(=O)O)cn12 (centres unmarked) [Compound 1003, 3-{5-[(adamantan-1-ylmethyl)carbamoyl]imidazo[1,2-a]pyridin-2-yl}-2-benzylpropanoic acid]
CC(C)CC(CNC(=O)c1cccc2nc(CC(Cc3ccccc3)C(=O)O)cn12)c1ccccc1 (centres unmarked) [Compound 1004, 2-benzyl-3-{5-[(4-methyl-2-phenylpentyl)carbamoyl]imidazo[1,2-a]pyridin-2-yl} propanoic acid]
Cc1ccc(C(CNC(=O)c2cccc3nc(CC(Cc4ccccc4)C(=O)O)cn23)CC(C)C)cc1 (centres unmarked) [Compound 1005, 2-benzyl-3-(5-{[4-methyl-2-(4-methylphenyl)pentyl]carbamoyl}imidazo[1,2-a]pyridin-2-yl)propanoic acid]
CCCC(CNC(=O)c1cccc2nc(CC(Cc3ccccc3)C(=O)O)cn12)c1ccc(Cl)cc1 (centres unmarked) [Compound 1006, 2-benzyl-3-(5-{[2-(4-chlorophenyl)pentyl]carbamoyl}imidazo[1,2-a]pyridin-2-yl) propanoic acid]
CC(C)CC(CNC(=O)c1cccc2nc(CC(Cc3ccccc3)C(=O)O)cn12)c1ccc(Cl)cc1 (centres unmarked) [Compound 1007, 2-benzyl-3-(5-{[2-(4-chlorophenyl)-4-methylpentyl]carbamoyl}imidazo[1,2-a]pyridin-2-yl) propanoic acid]
CC(C)CC(CNC(=O)c1cccc2nc(CC(Cc3ccccc3)C(=O)O)cn12)c1ccc(C(F)(F)F)cc1 (centres unmarked) [Compound 1008, 2-benzyl-3-[5-({4-methyl-2-[4-(trifluoromethyl)phenyl]pentyl}carbamoyl)imidazo[1,2-a]pyridin-2-yl] propanoic acid]
CCOC(=O)C(CC1CC1)c1cn2c(C(=O)NCC3(c4ccc(Cl)cc4)CCCCC3)cccc2n1 (centres unmarked) [Compound 1009, ethyl 2-[5-({[1-(4-chlorophenyl)cyclohexyl]methyl}carbamoyl)imidazo[1,2-a]pyridin-2-yl]-3-cyclopropylpropanoate]
O=C(NCC1(c2ccc(Cl)cc2)CCCCC1)c1cccc2nc(C(CC3CC3)C(=O)O)cn12 (centres unmarked) [Compound 1010, 2-[5-({[1-(4-chlorophenyl)cyclohexyl]methyl}carbamoyl)imidazo[1,2-a]pyridin-2-yl]-3-cyclopropylpropanoic acid]
Cc1ccc(C2(CNC(=O)c3cccc4nc(CC(Cc5ccccc5)C(=O)O)cn34)CCCCC2)cc1 (centres unmarked) [Compound 1011, 2-benzyl-3-[5-({[1-(4-methylphenyl)cyclohexyl]methyl}carbamoyl)imidazo[1,2-a]pyridin-2-yl] propanoic acid]
O=C(NCC1(c2ccc(F)cc2)CCCCC1)c1cccc2nc(CC(Cc3ccccc3)C(=O)O)cn12 (centres unmarked) [Compound 1012, 2-benzyl-3-[5-({[1-(4-fluorophenyl)cyclohexyl]methyl}carbamoyl)imidazo[1,2-a]pyridin-2-yl]propanoic acid]
O=C(NCC1(c2ccc(Cl)cc2)CCCCC1)c1cccc2nc(CC(Cc3ccccc3)C(=O)O)cn12 (centres unmarked) [Compound 1013, 2-benzyl-3-[5-({[1-(4-chlorophenyl)cyclohexyl]methyl}carbamoyl)imidazo[1,2-a]pyridin-2-yl] propanoic acid]
COc1ccc(C2(CNC(=O)c3cccc4nc(CC(Cc5ccccc5)C(=O)O)cn34)CCCCC2)cc1 (centres unmarked) [Compound 1014, 2-benzyl-3-[5-({[1-(4-methoxyphenyl)cyclohexyl]methyl}carbamoyl)imidazo[1,2-a]pyridin-2-yl]propanoic acid]
CC1(C)C2CC[C@@H](CNC(=O)c3cccc4nc(C(F)(F)F)cn34)C1C2 (stereo partly drawn) [Compound 1016, N-{[(2R)-6,6-dimethylbicyclo [3.1.1]hept-2-yl]methyl}-2-(trifluoromethyl) imidazo [1,2-a]pyridine-5-carboxamide]

same assay, conditions: P2X7 calcium mobilization, Example 4A; 50% decrease in the fluorescence response of cells exposed to 80 μM of (2′(3′)-O-(4-benzoyl-benzoyl)adenosine 5′-triphosephate); read-out: IC50

IC50, < 2 µM:
O=C(NCC1(c2ccc(C(F)(F)F)cc2)CCCCC1)c1cccc2nc(C(F)(F)F)cn12 [Compound 1018, 2-(trifluoromethyl)-N-({1-[4-(trifluoromethyl)phenyl]cyclohexyl}methyl) imidazo [1,2-a]pyridine-5-carboxamide]
O=C(NCC1(c2ccc(Cl)cc2)CCCCC1)c1cccc2nc(C(F)(F)F)cn12 [Compound 1020, N-{[1-(4-chlorophenyl)cyclohexyl]methyl}-2-(trifluoromethyl) imidazo [1,2-a]pyridine-5-carboxamide]
CC(C)CC(CNC(=O)c1cccc2nc(C(F)(F)F)cn12)c1ccc(Cl)cc1 (centres unmarked) [Compound 1021, N-[2-(4-chlorophenyl)-4-methylpentyl]-2-(trifluoromethyl) imidazo [1,2-a]pyridine-5-carboxamide]
CC(C)CC(CNC(=O)c1cccc2nc(C(F)(F)F)cn12)c1ccc(C(F)(F)F)cc1 (centres unmarked) [Compound 1025, N-{4-methyl-2-[4-(trifluoromethyl)phenyl]pentyl}-2-(trifluoromethyl) imidazo [1,2-a]pyridine-5-carboxamide]
COc1ccc(C2(CNC(=O)c3cccc4nc(C(F)(F)F)cn34)CCCCC2)cc1 [Compound 1026, N-{[1-(4-methoxyphenyl)cyclohexyl]methyl}-2-(trifluoromethyl) imidazo [1,2-a]pyridine-5-carboxamide]
CC(=O)c1cn2c(C(=O)NCC(CC(C)C)c3ccc(Cl)cc3)cccc2n1 (centres unmarked) [Compound 1032, 2-acetyl-N-[2-(4-chlorophenyl)-4-methylpentyl] imidazo[1,2-a] pyridine-5-carboxamlde]
CC(C)CC(CNC(=O)c1cccc2nc(C(C)N3CCC3)cn12)c1ccc(Cl)cc1 (centres unmarked) [Compound 1033, 2-(1-azetidin-1-ylethyl)-N-[2-(4-chlorophenyl)-4-methylpentyl] imidazo[1,2-a] pyridine-5-carboxamide]
CC(C)CC(CNC(=O)c1cccc2nc(CN3CCC3)cn12)c1ccc(Cl)cc1 (centres unmarked) [Compound 1034, 2-(azetidin-1-ylmethyl)-N-[2-(4-chlorophenyl)-4-methylpentyl] imidazo[1,2-a] pyridine-5-carboxamide]
CC(C)CC(CNC(=O)c1cccc2nc(C(C)N3CCCC3)cn12)c1ccc(Cl)cc1 (centres unmarked) [Compound 1035, N-[2-(4-chlorophenyl)-4-methylpentyl]-2-(1-pyrrolidin-1-ylethyl) imidazo[1,2-a]pyridine-5-carboxamide]
CC(C)CC(CNC(=O)c1cccc2nc(CN3CCCC3)cn12)c1ccc(Cl)cc1 (centres unmarked) [Compound 1036, N-[2-(4-chlorophenyl)-4-methylpentyl]-2-(pyrrolidin-1-ylmethyl) imidazo[1,2-a]pyridine-5-carboxamide]
CC(C)CC(CNC(=O)c1cccc2nc(C(C)N3CCOCC3)cn12)c1ccc(Cl)cc1 (centres unmarked) [Compound 1037, N-[2-(4-chlorophenyl)-4-methylpentyl]-2-(1-morpholin-4-ylethyl) imidazo[1,2-a]pyridine-5-carboxamide]
CC(C)CC(CNC(=O)c1cccc2nc(CN3CCOCC3)cn12)c1ccc(Cl)cc1 (centres unmarked) [Compound 1038, N-[2-(4-chlorophenyl)-4-methylpentyl]-2-(morpholin-4-ylmethyl) imidazo[1,2-a]pyridine-5-carboxamide]
CC(C)CC(CNC(=O)c1cccc2nc(CN3CC[C@@H](N(C)C)C3)cn12)c1ccc(Cl)cc1 (stereo partly drawn) [Compound 1039, N-[2-(4-chlorophenyl)-4-methylpentyl]-2-{[(3R)-3-(dimethylamino)pyrrolidin-1-yl]methyl} imidazo[1,2-a]pyridine-5-carboxamide]
